32 compounds from patent US4372975A, “Substituted 2-benzoyl-4-chloroglycinanilide derivatives, a process for their production, and their use as medicaments” (Pierre Fabre SA, priority 1977, dated 1983) can be followed below.

For series [1], the system named is pentamethylene tetrazole-induced tonic spasms. Kind of series: Anti-pentamethylene tetrazole activity. Format: in vivo, male mice of the Swiss strain. To be noted: for ED50: Mus musculus; for Activity antipentetrazol (VO), at 10 mg: 10 mg (mg/kg). On the procedure:
This test is carried out on a group of 10 male mice of the Swiss strain. 15 minutes after the subcutaneous injection of 125 mg/kg of pentamethylene tetrazole, the mice have tonic spasms of which the outcome is fatal.
For the test, the compound is administered orally 60 minutes before the injection of pentamethylene tetrazole. The animals are observed for 2 hours after administration of the pentamethylene tetrazole. In some particular cases, the tests were confirmed by intraperitoneal administration. The results are expressed by the effective dose DE50 (Goodman et Col.--J. Pharmacol. 108, 1953).
As Japanese Pat. No. 148,340 has been cited in copending application Ser. No. 916,651, filed June 19, 1978, comparisons between compounds of this closest prior art and the compounds of the invention were undertaken in the form of a controlled study.
The major consideration surrounded the similarity in the compounds, particularly in the substitution at the R position. The study compared ten compounds of the invention, which differed from the Japanese prior art only in that the compounds of the invention are alkylated at the R position while the prior art compounds are all hydrogenated at that position.
The compounds were tested for anti-pentamethylene tetrazole activity, the test described on p.

A short description of series [2]: Solubility. In kind it is physicochemical. To be noted: for solubility / solubility in water (in words): in water; for solubility in ethanol: in ethanol at 95° GL.
A short description of series [3]: Toxicity test (LD50, Miller and Tainter). Conditions: mouse, in vivo, mice. On the procedure:
The compounds according to the invention were subjected to toxicity tests. It was tested in batches of 10 mice by oral, intraperitoneal and, in some cases, intravenous administration and was calculated in accordance with Miller and Tainter's method (Proc. Soc. exper. Biol. Med., 1944, 57, 261).

The mark [4] stands for this setting: po, prior art comparison, VO, dose giving 50% inhibition, read-out: Activity antipentetrazol (VO), 50% inhibition.
The mark [5] stands for this setting: oral, 60 min before 125 mg/kg s.c. pentamethylene tetrazole, male Swiss mice, read-out: anti-pentamethylene tetrazole activity DE50 P.O.
The mark [6] stands for this setting: ip, intraperitoneal, read-out: DL50 I.P.

Counter-ions that a name gives are not always drawn. Like-named read-outs stand apart in the source and are kept apart here.

Take `CC(CNCC(=O)N(C)c1ccc(Cl)cc1C(=O)c1ccccc1)c1ccccc1` (centres unmarked): in series [1] (setting [4]), the ED50 is 2.9 mg/kg.

By solubility is commonly meant how much of the substance goes into solution per volume. A higher solubility goes with a readily soluble substance. As to `CC(C)NCC(=O)N(C)c1ccc(Cl)cc1C(=O)c1ccccc1` [Example 1, N-Isopropyl-N'-methyl-(2-benzoyl-4-chloro)-glycinanilide hydrochloride], in series [2], the solubility was 10 mg/mL.

`C#CC(C)(C)NCC(=O)N(C)c1ccc(Cl)cc1C(=O)c1ccccc1` [Example 2, N-Methyl-N'-1,1-dimethyl-propargyl-(2-benzoyl-4-chloro)-glycinanilide hydrochloride]: the ED50 in series [1] (setting [5]) was 1.5 mg/kg. This compound had a solubility in series [2] of 10 mg/mL. The LD50 in series [3] (setting [6]) is 450 mg/kg; in series [3] (oral, read-out: DL50 oral), above 1000 mg/kg.

As to `CNCC(=O)N(C)c1ccc(Cl)cc1C(=O)c1ccccc1` [Example 3, N,N'-Dimethyl-(2-benzoyl-4-chloro)-glycinanilide hydrochloride], the ED50 in series [1] (setting [4]) stood at 1.7 mg/kg. For the same compound, in series [2], the solubility amounted to 150 mg/mL.

`CN(C)CC(=O)N(C)c1ccc(Cl)cc1C(=O)c1ccccc1` [Example 4, N,N',N'-Trimethyl-(2-benzoyl-4-chloro)-glycinanilide]: the ED50 in series [1] (setting [4]) amounted to 1.7 mg/kg. Also, in series [2], the “solubility in dimethyl formamide” value turned out to be 20%, the solubility in ethanol came out at 20% and the “solubility in water (in words)” value is “insoluble”.

Take `COCCNCC(=O)N(C)c1ccc(Cl)cc1C(=O)c1ccccc1` [Example 5, N-Methyl-N'-(2'-methoxyethyl)-(2-benzoyl-4-chloro)-glycinanilide hydrochloride]: in series [1] (setting [5]), the ED50 turned out to be 2.6 mg/kg. Also, the solubility in series [2] amounted to 500 mg/mL. The LD50 in series [3] (setting [6]) was found to be 300 mg/kg; in series [3] (oral, read-out: DL50 oral), 750 mg/kg.

Take `CN(C(=O)CNCc1ccccc1)c1ccc(Cl)cc1C(=O)c1ccccc1` [Example 6, N-Methyl-N'-benzyl-(2-benzoyl-4-chloro)-glycinanilide hydrochloride]: in series [2], the solubility was determined as 25 mg/mL.

On to `C=CCNCC(=O)N(C)c1ccc(Cl)cc1C(=O)c1ccccc1` [Example 7, N-methyl-N'-allyl-(2-benzoyl-4-chloro)-glycinanilide hydrochloride], for which the ED50 in series [1] (setting [5]) stood at 1.9 mg/kg. Moreover, in series [2], the solubility was 30 mg/mL. Also, the LD50 is 500 mg/kg in series [3] (setting [6]) and above 1000 mg/kg in series [3] (oral, read-out: DL50 oral).

As to `C#CC(CC)(CC)NCC(=O)N(C)c1ccc(Cl)cc1C(=O)c1ccccc1` [Example 8, N-Methyl-N'-(1',1'-diethyl-propargyl)-(2-benzoyl-4-chloro)-glycinanilide hydrochloride], the ED50 in series [1] (setting [5]) worked out at 4.1 mg/kg. In addition, in series [2], the “solubility in dimethyl formamide” value amounted to 1%, the solubility in ethanol stood at 1% and the “solubility in water (in words)” value is listed as “insoluble”. Further, the LD50 in series [3] (setting [6]) came to 400 mg/kg. Besides, the LD50 in series [3] (oral, read-out: DL50 oral) is 1000 mg/kg.

For `C#CC1(NCC(=O)N(C)c2ccc(Cl)cc2C(=O)c2ccccc2)CCCCC1` [Example 9, N-Methyl-N'-(1'-ethinyl-cyclohexyl)-(2-benzoyl-4-chloro)-glycinanilide hydrochloride], the ED50 in series [1] (setting [5]) came to 3.9 mg/kg. Also, in series [2], the “solubility in dimethyl formamide” value came out at 2%, the solubility in ethanol stood at 3% and the “solubility in water (in words)” value is on record as “insoluble”. Further, the LD50 in series [3] (setting [6]) came to 200 mg/kg. In addition, in series [3] (oral, read-out: DL50 oral), the LD50 was found to be 560 mg/kg.

In the case of `CN(C(=O)CNC1CC1)c1ccc(Cl)cc1C(=O)c1ccccc1` [Example 10, N-Methyl-N'-cyclopropyl-(2-benzoyl-4-chloro)-glycinanilide hydrochloride], in series [1] (setting [5]), the ED50 worked out at 0.8 mg/kg. Also, the solubility in series [2] was 13 mg/mL.

Consider `CN(C(=O)CNC(C)(C)CO)c1ccc(Cl)cc1C(=O)c1ccccc1` [Example 12, N-Methyl-N'-(1',1'-dimethyl-2'-hydroxyethyl)-(2-benzoyl-4-chloro)-glycinanilide], for which, in series [2], the “solubility in dimethyl formamide” value worked out at 25%, the solubility in ethanol was 10% and the “solubility in water (in words)” value is “insoluble”.

For the compound `CCC(CO)(CO)NCC(=O)N(C)c1ccc(Cl)cc1C(=O)c1ccccc1` [Example 13, N-Methyl-N'-(1'-ethyl-1'-hydroxymethyl-2'-hydroxyethyl)-(2-benzoyl-4-chloro)-glycinanilide hydrochloride], the solubility in series [2] was determined as 500 mg/mL.

With `CCN(CCO)CC(=O)N(C)c1ccc(Cl)cc1C(=O)c1ccccc1` [Example 15, N-Methyl-N'-ethyl-N'-(2'-hydroxyethyl)-(2-benzoyl-4-chloro)-glycinanilide], the ED50 in series [1] (setting [5]) is 2.9 mg/kg. Also, in series [2], the “solubility in dimethyl formamide” value was 30%, the solubility in ethanol is 10% and the “solubility in water (in words)” value is “insoluble”. Also, the LD50 in series [3] (setting [6]) is 150 mg/kg. Further, in series [3] (oral, read-out: DL50 oral), the LD50 was found to be 550 mg/kg.

On to `CN(C(=O)CN(CCO)CCO)c1ccc(Cl)cc1C(=O)c1ccccc1` [Example 16, N-Methyl-N',N'-bis-(2'-hydroxyethyl)-(2-benzoyl-4-chloro)-glycinanilide hydrochloride], for which, in series [1] (setting [5]), the ED50 turned out to be 3.4 mg/kg. In series [2], the solubility came to 50 mg/mL. Further, the LD50 in series [3] (setting [6]) is above 500 mg/kg; in series [3] (oral, read-out: DL50 oral) it was above 1000 mg/kg.

Take `CN(C(=O)CN1CCCCC1)c1ccc(Cl)cc1C(=O)c1ccccc1` [Example 17, N-Methyl-2-piperidino-(2'-benzoyl-4'-chloro)-acetanilide hydrochloride]: the solubility in series [2] amounted to 500 mg/mL.

In the case of `CN(C(=O)CN(C)C1CCCCC1)c1ccc(Cl)cc1C(=O)c1ccccc1` [Example 20, N,N'-Dimethyl-N'-cyclohexyl-(2-benzoyl-4-chloro)-glycinanilide hydrochloride], the ED50 in series [1] (setting [5]) worked out at 1.9 mg/kg. The compound also yielded a solubility in series [2] of 20 mg/mL. Besides, the LD50 was above 500 mg/kg in series [3] (setting [6]) and above 1000 mg/kg in series [3] (oral, read-out: DL50 oral).

Take `CC(C)N(CC(=O)N(C)c1ccc(Cl)cc1C(=O)c1ccccc1)C1CCCCC1` [Example 21, N-Methyl-N'-isopropyl-N'-cyclohexyl-(2-benzoyl-4-chloro)glycinanilide hydrochloride]: the ED50 in series [1] (setting [5]) is 2.2 mg/kg. In series [2], this compound registered a solubility of 50 mg/mL. Besides, the LD50 in series [3] (setting [6]) worked out at 500 mg/kg; in series [3] (oral, read-out: DL50 oral), 1000 mg/kg.

On to `CN1CCN(CC(=O)N(C)c2ccc(Cl)cc2C(=O)c2ccccc2)CC1` [Example 22, N-Methyl-4'-methyl-2-piperazino-(2-benzoyl-4-chloro)-acetanilide], for which, in series [2], the “solubility in dimethyl formamide” value worked out at 5%, the solubility in ethanol is reported as 5% and the “solubility in water (in words)” value was “insoluble”. Moreover, in series [3] (setting [6]), the LD50 is 500 mg/kg. Moreover, the LD50 in series [3] (oral, read-out: DL50 oral) came to 1000 mg/kg.

Consider `CN(C(=O)Cn1ccnc1)c1ccc(Cl)cc1C(=O)c1ccccc1` [Example 23, N-Methyl-2-imidazolyl-(2-benzoyl-4-chloro)-acetanilide], for which, in series [2], the “solubility in dimethyl formamide” value is listed as 20%, the solubility in ethanol is reported as 10% and the “solubility in water (in words)” value is given as “insoluble”. In addition, the LD50 in series [3] (setting [6]) was determined as 500 mg/kg. The LD50 in series [3] (oral, read-out: DL50 oral) turned out to be 1000 mg/kg.

Take `CN(CCO)CC(=O)Nc1ccc(Cl)cc1C(=O)c1ccccc1` [R = H, R1 = CH3, R2 = CH2CH2 OH, reference compound]: the “Activity antipentetrazol (VO), at 10 mg” value in series [1] (prior art comparison, VO) is “inactive”.

As to `CN(C)CC(=O)Nc1ccc(Cl)cc1C(=O)c1ccccc1` [R = H, R1 = CH3, R2 = CH3, reference compound], in series [1] (prior art comparison, VO), the “Activity antipentetrazol (VO), at 10 mg” value was “inactive”.

Regarding `COCCNCC(=O)Nc1ccc(Cl)cc1C(=O)c1ccccc1` [R = H, R1 = H, R2 = CH2CH2OCH3, reference compound], the “Activity antipentetrazol (VO), at 10 mg” value in series [1] (prior art comparison, VO) is “inactive”.

On to `C=CCNCC(=O)Nc1ccc(Cl)cc1C(=O)c1ccccc1` [R = H, R1 = H, R2 = CH2CHCH2, reference compound], for which the “Activity antipentetrazol (VO), at 10 mg” value in series [1] (prior art comparison, VO) was “inactive”.

`CNCC(=O)Nc1ccc(Cl)cc1C(=O)c1ccccc1` [R = H, R1 = H, R2 = CH3, reference compound]: the “Activity antipentetrazol (VO), at 10 mg” value in series [1] (prior art comparison, VO) is “inactive”.

With `CNC1=Nc2ccc(Cl)cc2C(c2ccccc2)=[N+]([O-])C1` [chlordiazepoxide, reference compound], the ED50 in series [1] (setting [5]) was 5 mg/kg.

On to `CN1C(=O)CN=C(c2ccccc2)c2cc(Cl)ccc21` [diazepam, reference compound], for which the ED50 in series [1] (setting [5]) came to 1 mg/kg.

As for `C#CC(C)(C)NCC(=O)N(C)c1ccc(Cl)cc1C(=O)c1ccccc1` [drawing 31], the ED50 in series [1] (setting [4]) worked out at 2.3 mg/kg.

With `CN(C(=O)CNCc1ccccc1)c1ccc(Cl)cc1C(=O)c1ccccc1` [drawing 35], in series [1] (setting [4]), the ED50 turned out to be 3 mg/kg.

Regarding `C#CC(C)(C)NCC(=O)Nc1ccc(Cl)cc1C(=O)c1ccccc1` [reference compound], in series [1] (prior art comparison, VO), the “Activity antipentetrazol (VO), at 10 mg” value is “inactive”.

As to `O=C(CNCc1ccccc1)Nc1ccc(Cl)cc1C(=O)c1ccccc1` [reference compound], in series [1] (prior art comparison, VO), the “Activity antipentetrazol (VO), at 10 mg” value is “inactive”.

For `CC(CNCC(=O)Nc1ccc(Cl)cc1C(=O)c1ccccc1)c1ccccc1` (centres unmarked) [reference compound], the “Activity antipentetrazol (VO), at 10 mg” value in series [1] (prior art comparison, VO) is “inactive”.
